According to patent US4499106A, “Lipolytic composition and method of treating obesity” (Boehringer Ingelheim KG, priority 1983, dated 1985):
“Also recorded” adds a separate entry of the source.

Experiments:
[1] = tested on: unesterified fatty acids in the blood plasma; test: Metabolic effects in blood plasma of fed rats: unesterified fatty acids; type: in vivo, rat; conditions: for Unesterified Fatty Acids Δ%: blood plasma
Source text: (§9) Metabolic effects in the blood plasma of fed rats.
(§10) μmol/l (unesterified fatty acids) and mmol/l (lactate).
(§11) Averages ± S.E.M. N of the treated groups = 5-6.

[2] = tested on: lactate in the blood plasma; test: Metabolic effects in blood plasma of fed rats: lactate; type: in vivo, rat; conditions: for Lactate Δ%: blood plasma; for lactacidemia compared with Me 693: vs Me 693, in words
Source text: as §9, §10, §11

[3] = tested on: unesterified fatty acids in the blood; test: Unesterified fatty acids, conscious rat (maximum percentage change vs control); type: in vivo
Source text: (§1) If the effects on the heart (heart rate), circulation (diastolic blood pressure, peripheral vasodilation) and bronchi, on the one hand, and the increase in the unesterified fatty acids in the blood after the administration of Me 693, on the other hand, are compared with the effects of isoprenaline and fenoterol, it is clear that the cardiovascular and bronchospasmolytic effects are much greater after administration of the comparison substances than with the Me 693, whereas the reverse is true of the lipolytic effects.
(§2) Metabolic and cardiovascular effects and bronchospasmolytic effects of Me
(§3) isoprenaline and fenoterol in animals of various types. The table gives
(§4) maximum percentage changes compared with control values.

heart (heart rate) = test: Heart rate, anesthetized dog (maximum percentage change vs control); type: in vivo; conditions: for Heart Rate Δ%: maximum change; for cardiovascular effects compared with Me 693: vs Me 693, in words
Source text: as §1, §2, §3, §4

[4] = tested on: circulation (diastolic blood pressure); test: Diastolic blood pressure, anesthetized dog (maximum percentage change vs control); type: in vivo
Source text: as §1, §2, §3, §4

[5] = tested on: circulation (peripheral vasodilation); test: Peripheral vasodilation, anesthetized dog (maximum percentage change vs control); type: in vivo
Source text: as §1, §2, §3, §4

bronchi (ACh spasm) = test: Bronchospasmolysis, anesthetized guinea pig (inhibition of ACh spasm); type: in vivo; conditions: for bronchospasmolytic effects compared with Me 693: vs Me 693, in words
Source text: as §1, §2, §3, §4

[6] = tested on: unesterified fatty acids in the blood; test: Metabolic effects of oral administration to three conscious dogs (unesterified fatty acids, triglycerides, lactate); type: in vivo, dog; conditions: for Triglycerides Δ% / Unesterified Fatty Acids Δ%: maximum change
Description: (§5) A dose of only 0.1 mg/kg of Me 693 gives virtually a 100% increase in the unesterified fatty acids in the blood while the heart rate and the diastolic blood pressure are unaffected.
(§6) Metabolic and cardiovascular effects of Me 693 administered
(§7) orally to three conscious dogs. The table gives the maximum
(§8) percentage changes compared with the control values.

[7] = tested on: heart rate and diastolic blood pressure; test: Cardiovascular effects of oral administration to three conscious dogs (heart rate, diastolic blood pressure); type: in vivo, dog; conditions: for Diastolic Blood Pressure Δ% / Heart Rate Δ%: maximum change
Description: as §5, §6, §7, §8

[8] = tested on: metabolism (development and release of heat); test: Calorimetric effects after intravenous administration to rabbits; type: in vivo, rabbit; conditions: 0.5 mg/kg intravenously
[9] = tested on: lipolysis and glycogenolysis; test: Summary of animal experiments: lipolytic and glycogenolytic (lactate) activity; type: in vivo; conditions: in words
Source text: To summarize, the animal experiments with Me 693 have given the following results: […]

CC(Cc1ccc(O)cc1)NCC(O)c1cc(O)cc(O)c1 (stereo not shown) [Fenoterol, fenoterol]
Unesterified Fatty Acids Δ% ([1]; 0.1 mg/kg s.c.): +18%
Unesterified Fatty Acids Δ% ([1]; 1.0 mg/kg s.c.): +30%
Lactate Δ% ([2]; 0.1 mg/kg s.c.): +33%
Lactate Δ% ([2]; 1.0 mg/kg s.c.): +109%
lactacidemia compared with Me 693 [2]: significantly greater
Unesterified Fatty Acids Δ% ([3]; 0.1 mg/kg s.c.): +18%
Unesterified Fatty Acids Δ% ([3]; 1.0 mg/kg s.c.): +30%
Heart Rate Δ% (heart (heart rate); 0.1 μg/kg i.v.): +3%
Heart Rate Δ% (heart (heart rate); 1 μg/kg i.v.): +27%
Heart Rate Δ% (heart (heart rate); 10 μg/kg i.v.): +50%
cardiovascular effects compared with Me 693 (heart (heart rate)): much greater
Diastolic Blood Pressure Δ% ([4]; 0.1 μg/kg i.v.): -13%
Diastolic Blood Pressure Δ% ([4]; 1 μg/kg i.v.): -33%
Diastolic Blood Pressure Δ% ([4]; 10 μg/kg i.v.): -54%
Peripheral Vasodilation Δ% ([5]; 1 μg/kg i.a.): -20%
Peripheral Vasodilation Δ% ([5]; 3 μg/kg i.a.): -28%
Bronchospasmolysis, % Inhibition of ACh spasm (bronchi (ACh spasm); 10 μg/kg i.v.): 67-100%
bronchospasmolytic effects compared with Me 693 (bronchi (ACh spasm)): much greater

CC(COc1ccccc1)NCC(O)c1ccc(O)c(NS(=O)(=O)N(C)C)c1 (stereo not shown) [Me 693, 1-(4-hydroxy-3-dimethylamino-sulfonamidophenyl)-1-hydroxy-2-(1-phenoxy-isopropylamino)ethane]
Unesterified Fatty Acids Δ% ([1]; 0.1 mg/kg s.c.): +34%
Unesterified Fatty Acids Δ% ([1]; 1 mg/kg oral): +63%
Unesterified Fatty Acids Δ% ([1]; 1.0 mg/kg s.c.): +190%
increase in unesterified fatty acids in the blood vs comparison substances ([1]; identical dosage, vs isoprenaline and fenoterol, in words): much higher increase
Lactate Δ% ([2]; 0.1 mg/kg s.c.): 0%
Lactate Δ% ([2]; 1.0 mg/kg s.c.): +34%
Unesterified Fatty Acids Δ% ([3]; 0.1 mg/kg s.c.): +34%
Unesterified Fatty Acids Δ% ([3]; 1.0 mg/kg s.c.): +190%
Heart Rate Δ% (heart (heart rate); 10 μg/kg i.v.): +8%
Heart Rate Δ% (heart (heart rate); 20 μg/kg i.v.): +5%
Diastolic Blood Pressure Δ% ([4]; 10 μg/kg i.v.): -24%
Diastolic Blood Pressure Δ% ([4]; 20 μg/kg i.v.): -23%
Peripheral Vasodilation Δ% ([5]; 10 μg/kg i.a.): -14%
Peripheral Vasodilation Δ% ([5]; 30 μg/kg i.a.): -15%
Bronchospasmolysis, % Inhibition of ACh spasm (bronchi (ACh spasm); 100 μg/kg i.v.): 0-2%
Triglycerides Δ% ([6]; 0.1 mg/kg oral): +18%
Triglycerides Δ% ([6]; 0.3 mg/kg oral): +10%
Unesterified Fatty Acids Δ% ([6]; 0.3 mg/kg oral): +95%
Triglycerides Δ% ([6]; 1.0 mg/kg oral): +37%
Unesterified Fatty Acids Δ% ([6]; 1.0 mg/kg oral): +112%
unesterified fatty acids (in words) ([6]; 0.3 and 1 mg/kg oral): increased still further to a high level
heart rate and diastolic blood pressure (in words) ([7]; 0.1 mg/kg oral): unaffected
Diastolic Blood Pressure Δ% ([7]; 0.1 mg/kg oral): 0%
Heart Rate Δ% ([7]; 0.1 mg/kg oral): 0%
Diastolic Blood Pressure Δ% ([7]; 0.3 mg/kg oral): -15%
Heart Rate Δ% ([7]; 0.3 mg/kg oral): +36%
Diastolic Blood Pressure Δ% ([7]; 1.0 mg/kg oral): -26%
Heart Rate Δ% ([7]; 1.0 mg/kg oral): +95%
blood pressure (in words) ([7]; 0.3 and 1 mg/kg oral): reductions in blood pressure
heart rate (in words) ([7]; 0.3 and 1 mg/kg oral): dose-dependent increases in heart rate
core temperatures [8]: higher core temperatures
development and release of heat [8]: increased significantly
heart rate and ear temperature [8]: slight increase in heart rate and ear temperature
oxygen consumption [8]: increased oxygen consumption
respiratory quotient [8]: reduction in the respiratory quotient
differentiation between lipolytic and glycogenolytic activities ([9]; animal experiments): Extreme differentiation between the lipolytic and glycogenolytic activities
glycogenolytic effect ([9]; animal experiments): virtually negligible glycogenolytic activity; also recorded: does not have the glycogenolytic effect
lipolytic effect ([9]; animal experiments): Strong lipolytic activity; also recorded: particularly long-lasting selective lipolytic effect
blood lactate [9]: no changes are observed in blood lactate

CC(C)NCC(O)c1ccc(O)c(O)c1 (stereo not shown) [Isoprenaline, isoprenaline]
Unesterified Fatty Acids Δ% ([1]; 0.1 mg/kg s.c.): +15%
Unesterified Fatty Acids Δ% ([1]; 1.0 mg/kg s.c.): +27%
Lactate Δ% ([2]; 0.1 mg/kg s.c.): +112%
Lactate Δ% ([2]; 1.0 mg/kg s.c.): +148%
lactacidemia compared with Me 693 [2]: significantly greater
Unesterified Fatty Acids Δ% ([3]; 0.1 mg/kg s.c.): +15%
Unesterified Fatty Acids Δ% ([3]; 1.0 mg/kg s.c.): +27%
Heart Rate Δ% (heart (heart rate); 0.1 μg/kg i.v.): +18%
Heart Rate Δ% (heart (heart rate); 1 μg/kg i.v.): +37%
Heart Rate Δ% (heart (heart rate); 10 μg/kg i.v.): +56%
cardiovascular effects compared with Me 693 (heart (heart rate)): much greater
Diastolic Blood Pressure Δ% ([4]; 0.1 μg/kg i.v.): -40%
Diastolic Blood Pressure Δ% ([4]; 1 μg/kg i.v.): -62%
Diastolic Blood Pressure Δ% ([4]; 10 μg/kg i.v.): -71%
Peripheral Vasodilation Δ% ([5]; 0.001 μg/kg i.a. (so in the source)): -28%
Peripheral Vasodilation Δ% ([5]; 0.003 μg/kg i.a.): -24%
Peripheral Vasodilation Δ% ([5]; 0.03 μg/kg i.a.): -33%
Bronchospasmolysis, % Inhibition of ACh spasm (bronchi (ACh spasm); 10 μg/kg i.v.): 76-94%
bronchospasmolytic effects compared with Me 693 (bronchi (ACh spasm)): much greater
